Tests used:
Assay in all cases: relative viability (nuclei count vs DMSO), 5 days (fraction); higher = more cells survive
[1] = compound: CC1(C)CNc2cc(NC(=O)c3cccnc3NCc3ccncc3)ccc21 [Motesanib] + Nc1nc2[nH]cc(CCc3ccc(C(=O)N[C@@H](CCC(=O)O)C(=O)O)cc3)c2c(=O)[nH]1 [Pemetrexed] (partner 0.2 µM)
Summary of the method: (§1)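 Lung cancer cell lines in 1536-well plates were dosed by pin tool the day after seeding, either with one drug alone or with a fixed anchor-drug dose plus five library-drug doses (not always all listed) in √10 steps. After 5 days, cells were fixed and their nuclei stained in one step (final 0.05% Triton X-100, 1% formaldehyde, 1 ug/ml Hoechst), then counted on 4× images. Relative viability is the nuclei count in treated wells divided by that in vehicle wells. Values are medians of duplicate plates.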

[2] = compound: CC1(C)CNc2cc(NC(=O)c3cccnc3NCc3ccncc3)ccc21 [Motesanib] + C[C@@H](Oc1cc(-c2cnn(C3CCNCC3)c2)cnc1N)c1c(Cl)ccc(F)c1Cl [Crizotinib] (partner 1 µM)
Summary of the method: as §1

[3] = compound: CC1(C)CNc2cc(NC(=O)c3cccnc3NCc3ccncc3)ccc21 [Motesanib] + CCNC(=O)c1noc(-c2cc(C(C)C)c(O)cc2O)c1-c1ccc(CN2CCOCC2)cc1 [Luminespib] (partner 0.01 µM)
Summary of the method: as §1

[4] = compound: C[C@@]1(C(=O)Nc2ccc(F)nc2)CCCN1c1nc(Nc2cc(C3CC3)n[nH]2)c2cccn2n1 + COc1cccc2cc(-c3nc([C@H]4CC[C@H](C(=O)O)CC4)n4ncnc(N)c34)[nH]c12 [OSI-027] (partner 0.5 µM)
Summary of the method: as §1

Cell Line	relative viability ([1]; first compound 0.01 µM)	relative viability ([1]; first compound 0.03162 µM)	relative viability ([1]; first compound 0.1 µM)	relative viability ([1]; first compound 0.3162 µM)	relative viability ([1]; first compound 1 µM)	relative viability ([2]; first compound 0.01 µM)	relative viability ([2]; first compound 0.03162 µM)	relative viability ([2]; first compound 0.1 µM)	relative viability ([2]; first compound 0.3162 µM)	relative viability ([2]; first compound 1 µM)	relative viability ([3]; first compound 0.01 µM)	relative viability ([3]; first compound 0.03162 µM)	relative viability ([3]; first compound 0.1 µM)	relative viability ([3]; first compound 0.3162 µM)	relative viability ([3]; first compound 1 µM)	relative viability ([4]; first compound 0.04 µM)	relative viability ([4]; first compound 0.1265 µM)	relative viability ([4]; first compound 0.4 µM)	relative viability ([4]; first compound 1.265 µM)
EKVX	0.414	0.377	0.368	0.394	0.406	0.988	0.889	0.916	1.09	0.898	0.847	0.836	0.833	0.877	0.826	0.574	0.399	0.391	0.373
EMC-BAC-2	0.412	0.408	0.471	0.412	0.524	0.761	0.656	0.765	0.739	0.674	1.2	1.16	1.14	1.16	1.05	0.299	0.274	0.241	0.251
EPLC-272H	0.656	0.285	0.254	0.273	0.243	0.935	0.969	1.05	1.04	0.944	0.302	0.268		0.233	0.266	0.301		0.24	0.189
H3255	0.552	0.59	0.602	0.589	0.587	0.793	0.883	0.986	0.838	0.863	0.872	0.954	0.942	1.06	0.902	0.523	0.555	0.397	0.447
HARA	0.194	0.207	0.128	0.185	0.212	1.1	0.993	1.06	1.1	1.04	0.894	0.628	0.786	0.871	0.612	0.439	0.208	0.171	0.25
HCC-15	0.212	0.203	0.188	0.179	0.202	0.778	0.782	0.799	0.835	0.838	0.33	0.38	0.314	0.278	0.545	0.417	0.189	0.305	0.365
HCC-44	0.656	0.653	0.788	0.724	0.605	0.883	0.8	0.801	0.765	0.901	1.07	0.964	0.884	1.24	1.2	0.447	0.213	0.298	0.191
HCC-78	0.902	0.897	0.858		0.906	0.378	0.352	0.37	0.326	0.384						0.377	0.308	0.298	0.323
HCC-366	0.189	0.154	0.18	0.147	0.143	0.575	0.487	0.605	0.556	0.596						0.861	0.585	0.462	0.437

Source: the supplement of paper PMC10307832
